According to BigSolDB 2.1:

COc1ccc2nc(SCc3ncc(C)c(OC)c3C)[nH]c2c1
solubility (mole fraction)
Conditions	in acetone	in ethanol	in ethyl acetate	in isopropanol	in methanol	in n-butanol	in n-propanol
280.35 K	0.005	0.0144	0.0033	0.0032	0.0127	0.0103	0.0076
284.35 K	0.0065	0.0189	0.004	0.0044	0.0178	0.0134	0.0101
288.15 K	0.0083	0.0248	0.0049	0.0058	0.0239	0.0171	0.0134
292.25 K	0.0108	0.0323	0.0058	0.0079	0.0322	0.0218	0.0178
296.65 K	0.014	0.0412	0.0073	0.0108	0.0442	0.0292	0.0234
300.25 K	0.0172	0.0511	0.0085	0.014	0.0559	0.0356	0.0296
303.15 K	0.0203	0.0606	0.0098	0.0172	0.0668	0.0425	0.0359
307.65 K	0.0263	0.0775	0.0122	0.0234	0.0887	0.0549	0.047
311.15 K	0.0319	0.0946	0.0142	0.0286	0.11	0.0661	0.0567
315.15 K	0.039	0.115	0.0165	0.037	0.138	0.0824	0.0713
319.65 K	0.0496	0.141	0.0208	0.0482	0.172	0.104	0.0914
